Test results: patent US12685739B2, “Compositions and methods for treating lung injury” (University of Maryland, Baltimore, priority 2020, dated 2026)

What was measured:
[1] = tested on: rat model of ARDS plus MV; assay: rat model of ARDS (intratracheal HCl) plus mechanical ventilation; format: in vivo
Description: In other cases, a rat model of ARDS was used in which acute lung injury is induced by acid instillation, followed by mechanical ventilation. […] In a second experiment, a conventional rat model of ARDS plus MV was used. Rats were anesthetized and intubated. […] After inducing ALI, rats received MV for 4 hours, as above, except that VT=8 mL/kg. Rats were euthanized at 24 hours. […] MV (VT=8 mL/kg) was continued for 4 hours, following which rats were extubated, recovered from anesthesia and returned to their home cages. Lung function was evaluated at 24 hours. Rats were re-anesthetized. […] Rats were then re-intubated for MV. […] In a subgroup of rats, after completing the 24-hour lung function assessments, rats were euthanized, and the lungs were […] using 5 mL normal saline to obtain bronchioalveolar lavage fluid (BALF). BALF was analyzed for protein.

human neutrophils = assay: MRP8/14 exocytosis from activated human neutrophils, ELISA; format: cell-based; design: dose or concentration left out as unconfirmed; settings: co-incubation with glibenclamide, n=6
Description: FIG. 9. […] Exocytosis of MRP8/14 from human neutrophils using ELISA was studied. […] Co-immunoprecipitation experiments were performed to determine whether SUR1 and MRP8/14 physically co-associate.

[2] = tested on: LPS-induced mouse model of ARDS; assay: LPS-induced mouse model of ARDS; format: in vivo; settings: 10 μg IP 2 hours after LPS and again 5 hours later, 24 hours after LPS, vs vehicle
Description: At 24 hours after LPS induction, bronchioalveolar fluid (BALF) was analyzed for neutrophil infiltration, and lung tissues were analyzed for cytokine expression. […].
At 24 hours after LPS induction, bronchioalveolar fluid (BALF) was analyzed for neutrophil infiltration, and lung tissues were analyzed for S100A8/MRP8, which is released by neutrophils. As previously, LPS instilled into the lungs caused a massive invasion of neutrophils into the BALF, as well as dramatic accumulation of the S100A8/MRP8. […]

SUR1-regulated channels = settings: in vitro, low-dose; read-out: EC50, inhibition of SUR1-regulated channels; cited from earlier work
[3] = tested on: murine model of ALI induced by intranasal ovalbumin (OVA); settings: 20 mg/kg, mice pre-sensitized to OVA; cited from earlier work
[4] = tested on: rat model of ALI induced by IV administration of oleic acid (OA); settings: 75 mg/kg IP 1 hour before OA; cited from earlier work
[5] = tested on: mouse model of ventilator-induced lung injury (VILI); settings: 50 mg/kg, VT=15 mL/kg; cited from earlier work
[6] = tested on: rat model of VILI with MV alone; assay: rat model of VILI with mechanical ventilation alone; settings: 10 μg/kg IP at start of MV, MV 4 hours (10 mL/kg), assessed at 24 hours, vs vehicle
[7] = 50 μg/kg IP at onset of MV and at 6 hours, 24 hours, vs VEH

## COc1ccc(Cl)cc1C(=O)NCCc1ccc(S(=O)(=O)NC(=O)NC2CCCCC2)cc1 [glibenclamide]
[1]; [7]
  dynamic lung compliance, pressure-volume curve: the shift to the right was less pronounced
  hemoglobin (Hgb) in lung tissues, immunoblot: less hemorrhagic exudate
  hemorrhagic exudates, gross appearance of lungs: reduced hemorrhagic exudates
  protein in BALF: the increase was less pronounced
[1]; 50 μg/kg IP at onset of MV and at 6 hours, at 24 hours, n=3
  oxygen saturation (sO2), pulse oximetry: 88±4.4%
[1]; ARDS with MV, vs VEH
  cellular infiltrates, H&E-stained lung sections: reduced cellular infiltrates
[1]; lung tissues, vs VEH
  neutrophil invasion, immunohistochemistry for MPO: less pronounced
  quantification of MPO by immunohistochemistry and immunoblot: significant reduction
[1]; vs VEH
  NOS2 expression in lung tissues: attenuated
  TNF expression in lung tissues: attenuated
Human neutrophils; neutrophils stimulated with LPS
  MRP8/14 exocytosis (release into extracellular media): significantly reduced
Human neutrophils; neutrophils stimulated with PMA
  MRP8/14 exocytosis (release into extracellular media): significantly reduced
[2]
  IL-6 in lung tissues: significant reduction
  MCP-1 in lung tissues: significant reduction
  S100A8/MRP8 in lung tissues: significant reduction
  neutrophils in BALF: significant reduction
[2]; listed as Glibenclamide
  IL-6 in lung tissues: significant reductions
  MCP-1 in lung tissues: significant reductions
SUR1-regulated channels
  EC50: 48 nM
[3]
  Th2 cytokines IL-5, IL-4 and IL-13 in BALF: significantly reduced
[4]
  levels of myeloperoxidase (MPO) and malondialdehyde (MDA): reduced levels
  pulmonary interstitial edema, infiltration of neutrophils and mononuclear cells: significantly alleviated
[5]
  BALF total protein, neutrophils, IL-1β, IL-6 and KC levels: reduced
  pulmonary edema: reduced pulmonary edema
[6]
  pulmonary edema (wet weight/dry weight): significantly reduced
[6]; listed as GLIB
  pulmonary edema (wet weight/dry weight): significantly decreased pulmonary edema
[6]; listed as Glibenclamide
  pulmonary edema (wet weight/dry weight): significantly decreased pulmonary edema
